Laboratory results from patent US20210023238A1, “TRIPTOLIDE ANTIBODY CONJUGATES” (City of Hope, priority 2019, published 2021).

Assays:
Type in all cases: cell-based
A549 NSCLC cells = test: CCK-8 cell proliferation / cytotoxicity, A549; conditions: Homo sapiens, A549 (EGFR+++), 72 h
Procedure: (§1) H520, H1299, and A549 cells were plated at a density of 3×10^3 cells/well in 96-well multiplates. […] Then after, 10 ul of CCK-8 solution was added to each well and further developed for 2 h. The absorbance values were detected at a wavelength of 450 nm using a Bio-Rad microplate reader. The cell viability was calculated by the optical density (OD) values of treated groups/OD values of control groups (Vehicle/PBS)×100%.

H1299 NSCLC cells = test: CCK-8 cell proliferation / cytotoxicity, H1299; conditions: Homo sapiens, NCI-H1299, H1299 (EGFR+++), 72 h
Procedure: as §1

H520 NSCLC cells = test: CCK-8 cell proliferation / cytotoxicity, H520; conditions: Homo sapiens, NCI-H520, H520 (EGFR+/-), 72 h
Procedure: as §1

Q: What does the source list for `CC(C)[C@]12O[C@H]1[C@@H]1O[C@]13[C@]1(O[C@H]1C[C@H]1C4=C(CC[C@@]13C)C(=O)OC4)[C@@H]2O` [TRP, Triptolide]?
A: IC50 (A549 NSCLC cells): 25 to 50 nM; IC50 (H1299 NSCLC cells): 6.25 to 12.5 nM; IC50 (H520 NSCLC cells): 3.13 nM
